Where “and” joins values, the source holds several entries; their conditions need not be identical. Equal values may be shown once. Residues, ends and D or L forms follow the SMILES beside them.
Key:
[1] = test system: DU145 cancer cell; type: cell-based, human
Method: (§1) Ninety-six-well plates were coated with 100 ng of PD-L1 protein (G&P Biosciences, human PD-L1 ECD, cat #FCL0784B. mouse PD-L1, cat #FCL3502B) and later blocked with 2% BSA for 2 hours at room temperature. Various concentrations of peptides were loaded into the wells and incubated for 1 hour at room temperature. […] Streptavidin-HRP (R & D systems) and chromogenic substrate were added into the wells. OD450 was then recorded and referenced to OD540.
The blocking efficiency of the anti-PD-L1 peptides at 10 μM (FIG. 2c). […] The IC50 of each peptide was also determined using recombinant human PD-L1 protein and DU-145 cancer cells.

[2] = test system: 3D tumor spheroids of MDA-MB-231 cells; assay: 3D tumor spheroid penetration assay; type: cell-based, human; conditions: Cy5-labeled, 2 and 6 hours
Method: 3D Tumor Spheroid Penetration Assay. 3D spheroids of MDA-MB-231 cells were generated using the Spheroid Formation Extracellular Matrix (ECM) as per the company's protocol (Amsbio, Cambridge, MA). Briefly, 3,000 tumor cells were mixed with 50 μL Spheroid Formation ECM and loaded into a Corning™ 96-well Ultra-low Attachment Treated Spheroid Microplate (Corning, Pittsburgh, PA). The plate was centrifuged at 200 g for 3 min at 4° C. The cells were then incubated at 37° C. until the diameter reached approximately 700 μm. The Cy5-labeled CLP002 peptide and anti-PD-L1 antibody were incubated with the spheroids for 2 or 6 hours. After washing, penetration of the peptide and antibody inside the tumor spheroids was determined using confocal microscopy.

[3] = test system: CT26 colorectal tumor-bearing mouse model; assay: Anti-tumor activity in CT26 tumor-bearing Balb/C mice; type: in vivo
Text: (§2) Animal Study. The animal protocol was approved by the University of Missouri-Kansas City, Institutional Animal Care and Use Committee (IACUC). Five-week old male and female Balb/c mice were purchased from Charles Rivers Laboratories (Wilmington, Mass.) and housed in a temperature and humidity controlled room on a 12-hour light-dark cycle. Approximately 5×10^5 CT26 cells were subcutaneously injected into the right flank. The mice were randomly divided into five different groups (10 mice/group, 50% female, 50% male). The mice were intraperitoneally injected with 2 mg/kg peptide daily when the tumor size reached 50-100 mm^3. The anti-mouse PD-L1 antibody (10F.9G2, BioXcell) was administrated as a positive control at a dose of 10 mg/kg every two days. The tumor size was assessed with a caliper and calculated with the formula 0.5×length×width^2. ELISA kits of PD-L1 (Cat #DY1019-05), IFNγ (Cat #DY485-05), and IL-6 (Cat #DY406-05) were used to measure the expressions of PD-L1, IFNγ, and IL-6, respectively, in tumors as per the company's instructions (R & D Systems, Minneapolis, MN).
The anti-mouse PD-L1 antibody (BioXcell, 10F.9G2) was administered intraperitoneally every other day at 10 mg/kg. […] In general, CLP002 (SEQ ID NO:2) exerted a better tumor inhibitory effect than CLP003 (SEQ ID NO:3), which was similar to the antibody. […] In FIG. 6e the weight of the tumors harvested at day 14 is shown. The results were represented as the mean±SD (n=10). It is noteworthy that the peptides were screened against the human PD-L1 protein, which, in fact, would compromise the anti-tumor activity of the peptides in a mouse model.

[4] = test system: CT26 tumor-bearing Balb/C mice; assay: Survival of CT26 tumor-bearing Balb/C mice; type: in vivo, mouse
Text: as §2
In this Example, mice were intraperitoneally injected with the CLP002 (SEQ ID NO:2) and CLP003 (SEQ ID NO:3) peptides daily or the anti-mouse PD-L1 antibody every other day from day 4 to day 17 (see survival curves in FIG. 7a). Specifically, CT26 tumor-bearing Balb/C mice (n=10, 5 male and 5 female) were intraperitoneally injected with the anti-PD-L1 peptides (2 mg/Kg) daily and the anti-mouse PD-L1 antibody (10 mg/Kg) every other day from day 4 to day 17. GraphPad Prism 7 software (San Diego, Calif.) was used for statistical analysis. Comparison of two survival curves were conducted using the Gehan-Breslow-Wilcoxon test. […] By contrast, only 20% of the mice in the CLP002 (SEQ ID NO:2) group were dead by day 17.

[5] = molecular target: mPD-L1 (Mus musculus, UniProt Q9EP73); assay: Blockade of the mouse PD-1/PD-L1 interaction, mouse PD-L1 protein; type: binding; parameters: purchased G&P Biosciences FCL3502B (PD-L1)
mPD-L1, sequence (Q9EP73 19-239 limits assumed): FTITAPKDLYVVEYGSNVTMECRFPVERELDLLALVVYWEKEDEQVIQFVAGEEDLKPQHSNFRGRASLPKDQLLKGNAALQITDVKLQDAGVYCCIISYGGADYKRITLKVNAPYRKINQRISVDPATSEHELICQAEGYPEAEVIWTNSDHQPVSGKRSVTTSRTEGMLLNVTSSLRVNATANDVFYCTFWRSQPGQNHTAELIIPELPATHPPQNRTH
Method: as §1

## CC(C)C[C@H](NC(=O)[C@H](CC(N)=O)NC(=O)[C@H](Cc1c[nH]c2ccccc12)NC(=O)[C@@H](NC(=O)[C@H](Cc1ccc(O)cc1)NC(=O)[C@H](Cc1ccc(O)cc1)NC(=O)[C@H](CO)NC(=O)[C@H](CCCNC(=N)N)NC(=O)[C@H](Cc1c[nH]cn1)NC(=O)[C@@H](N)Cc1c[nH]c2ccccc12)[C@@H](C)O)C(=O)N[C@@H](CC(N)=O)C(=O)N[C@H](C(=O)O)[C@@H](C)O [CLP002] (H-WHRSYYTWNLNT-OH; N-terminus and C-terminus assumed)
[1]; 2 h
  IC50: 1.43 µM
[1]; DU-145 cancer cells
  Blocking Efficiency (%): 80%
[2]; confocal microscopy
  Tumor spheroid penetration (in words): better tumor penetration than the antibody
[2]; spheroids ~700 μm
  Depth of penetration from the periphery of the spheroids: approximately 250 μm
[3]; peptides 2 mg/kg i.p. daily, antibody 10 mg/kg i.p. every other day
  Tumor growth: effectively suppressed tumor growth
[3]; versus saline group
  Tumor weights at day 14: significantly smaller than the saline group
[4]; Example 7, individual growth curves
  Tumor growth in the survival study: inhibited tumor growth
[4]; n=10
  Mice showing a response to treatment (in words): Eight mice showed a response
[4]; n=10, saline group 90%
  Mice dead by day 17: 20%
[4]; treatment from day 4 to day 17
  Survival of tumor-bearing mice: improved the survival
[5]; at 10 μM, FIG. 2f
  Blocking efficiency against mouse PD-1/PD-L1 interaction: 71%
[5]; mouse PD-L1 protein
  Blocking Efficiency (%): 71% and 68%
  IC50: 1.91 µM

Reference: US12258424B2, “Polypeptides and compositions comprising the same” (priority 2020, dated 2025)
